From patent publication US20120130078A1, “INDAZOLE DERIVATIVES AS ADENOSINE MONOPHOSPHATE DEAMINASE (AMPD) INHIBITORS FOR USE IN DIABETES AND RELATED DISEASES OF METABOLIC SYNDROME” (priority 2010, published 2012)

Experiments:
L6 cells [1] = assay: Glucose uptake assay (2-deoxyglucose uptake) in L6 cells; assay type: cell-based; details: FIG. 1, 4, 10
Procedure: Glucose uptake was determined as the rate of 2-deoxy-D-[2,6-^3H]glucose uptake, using modification of a previous method (15). The cells were first incubated for 15 min with Krebs-Henseleit Bicarbonate buffer (KHB), glucose, and other agents as indicated. At this point, the labeled deoxyglucose (0.6 μCi) was added to each well and the incubation continued for 45 min. The media was aspirated, and the wells were washed three times with ice-cold KHB to remove exogenous label. The cells were lysed by the addition of 0.1% Triton-X100 (1 mL). Samples of each well were mixed with aqueous scintillation fluid and measured by liquid scintillation counting.

L6 cells [2] = assay: Palmitate (fatty acid) oxidation assay in L6 cells; assay type: cell-based; details: FIG. 2, 3, 11
Procedure: Palmitate oxidation was determined by a modification of quantitative measuring the rate of ^14CO2 production from ^14C-labeled palmitic acid as described previously (24). The KHB for these incubations was supplemented with fatty-acid poor albumin, dialyzed against the same buffer (three changes). The final albumin concentration was 1%. After an initial 10 min of incubation, all samples received 2 mM carnitine and [1-^14C]-palmitic acid (1 μCi/mole), and other additions as noted, and incubations continued to the end of 3 h. Aliquots of 0.8 mL were taken from each well to an eppendorf tube. […] 200 μL of 3 M perchloric acid was carefully added to the 0.8 mL to ensure no acid was deposited on the side of the tube, and the lid was quickly closed. The tubes were incubated overnight to allow the [^14C] CO2 to be absorbed into the wick. The caps were removed with scissors and placed in 10 mL of liquid scintillation fluid for counting.

AMP deaminase (AMPD) = assay: AMP deaminase enzymatic assay (in vitro); assay type: biochemical; details: for AMPD inhibition, comparison of three synthesized compounds: FIG. 9
Procedure: AMP deaminase activity was measured as described by Ashby and Frieden (4). Standard assay monitored the absorbance change at 285 nm as a result of AMP conversion to IMP in a reaction volume of 2 mL containing 50 mM imidazole-HCl (pH 7.0), 2 mM AMP and 150 mM KCl. One unit of enzyme activity is defined as the amount of protein required to produce 1 μmol IMP per min at 25° C. under standard conditions.

L6 cells [3] = assay: Ammonia assay, ammonia formation by intact cells; assay type: cell-based; details: FIG. 7, 12
Procedure: Ammonia was measured as described by Kun et al. (19). Briefly, after two hours incubation with or without 10 mM metformin, 0.5 mL of samples were added into cuvette and mixed with assay reagents (100 mM Tris buffer, 10 mM α-ketoglutaric acid, 0.24 mM NADH in 1 mL). Absorbance was measured at 340 nm with spectro-photometer (Hitachi, U-2000). 20 μL of glutamate dehydrogenase (200 μg/mL) was added into cuvette and mixed, and absorbance was measured again after 1 hour at 340 nm.

L6 muscle cell line [4] = assay: Lactate formation in L6 muscle cell line; assay type: cell-based
L6 muscle cell line [5] = assay: Glycogen synthesis in L6 muscle cell line; assay type: cell-based
AMPK = assay: Phosphorylation of AMPK; assay type: cell-based
acetyl CoA carboxylase = assay: Phosphorylation of acetyl CoA carboxylase; assay type: cell-based
[6] = tested on: cells with adenylate kinase knockout; assay: Metformin action in cells with adenylate kinase knockout (siRNA); assay type: cell-based; details: adenylate kinase knockout using siRNA; FIG. 5

Structure (SMILES) | glucose transport / glucose uptake (L6 cells [1]) | palmitate / fatty acid oxidation (L6 cells [2]) | AMPD inhibition, comparison of three synthesized compounds (AMP deaminase (AMPD)) | ammonia formation (L6 cells [3]) | also measured
[NH-]c1c[n+](N2CCOCC2)no1 [SIN-1] | stimulation of glucose transport | inhibits fatty acid oxidation | – | – | –
NC(=O)c1n[nH]c2ccccc12 [SKTT-1, 1H-indazole-3-carboxamide] | stimulated glucose uptake | replicated the metformin stimulation of fatty acid oxidation | similar | suppressed ammonia formation | AMPD inhibition curves, potency compared with metformin (AMP deaminase (AMPD); FIG. 8, compared with metformin): more potent
COC(=O)c1n[nH]c2ccccc12 [SKTT-2, methyl 1H-indazole-3-carboxylate] | stimulated glucose uptake | replicated the metformin stimulation of fatty acid oxidation | similar | suppressed ammonia formation | –
COC(=O)c1cccc2[nH]ncc12 [SKTT-12, methyl 1H-indazole-4-carboxylate] | – | – | somewhat less effective | – | –
CN(C)C(=N)N=C(N)N [metformin] | stimulation of glucose transport | stimulation | – | decrease in ammonia formation | AMPD activity measured in vitro (AMP deaminase (AMPD); FIG. 6): inhibited AMPD activity; lactate formation (L6 muscle cell line [4]): stimulation; glycogen synthesis (L6 muscle cell line [5]): inhibition of glycogen synthesis; phosphorylation of the AMPK (AMPK): direct phosphorylation of the AMPK; phosphorylation of acetyl CoA carboxylase (acetyl CoA carboxylase): phosphorylation; effect of adenylate kinase deletion on metformin action [6]: no effect
C=C(C)[C@H]1Cc2c(ccc3c2O[C@@H]2COc4cc(OC)c(OC)cc4[C@@H]2C3=O)O1 [rotenone] | does increase glucose uptake | leads only to inhibition of fatty acid oxidation | – | – | –
